Test results taken from patent publication US20240041042A1, “1-(PYRIDYL)-5-AZINYLPYRAZOLE DERIVATIVES, AND THEIR USE FOR CONTROL OF UNDESIRED PLANT GROWTH” (Bayer Aktiengesellschaft, priority 2020, published 2024).
Where two headings read alike, the source gives them in different places.

Key:
Format in all cases: in vivo
[1] = system: Alopecurus myosuroides (ALOMY); assay: Pre-emergence herbicidal action against ALOMY; conditions: scored visually after about 3 weeks, 100% = plants have died
Outline: (§1)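 Greenhouse pot trial: seeds sown, soil-covered, sprayed before emergence with compound in water (0.5% additive; 600 l/ha; ≤320 g/ha). Scoring visual, ~3 weeks, 0–100% scale vs untreated.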

[2] = system: Amaranthus retroflexus (AMARE); assay: Pre-emergence herbicidal action against AMARE; conditions: visual scoring after about 3 weeks vs untreated controls
Outline: as §1

[3] = system: Digitaria sanguinalis (DIGSA); assay: Pre-emergence herbicidal action against DIGSA
From the text: Seeds of monocotyledonous and dicotyledonous weed plants and crop plants are placed in plastic or organic planting pots and covered with soil. The compounds of the invention, formulated in the form of wettable powders (WP) or as emulsion concentrates (EC), are then applied to the surface of the covering soil as aqueous suspension or emulsion with addition of 0.5% additive at a water application rate equivalent to 600 l/ha. After the treatment, the pots are placed in a greenhouse and kept under good growth conditions for the trial plants. After about 3 weeks, the effect of the preparations is scored visually in comparison with untreated controls as percentages. For example, 100% activity=the plants have died, 0% activity=like control plants.
Tables A1 to A13 below show the effects of selected compounds of the general formula (I) on various harmful plants and at an application rate corresponding to 320 g/ha or lower, which were obtained by the experimental procedure mentioned above. The appendices “a”, “b” and “c” give differentiation by dosage used with otherwise the same harmful plants tested.

[4] = system: Echinochloa crus-galli (ECHCG); assay: Pre-emergence herbicidal action against ECHCG
Outline: as §1

Lolium rigidum (LOLRI) = assay: Pre-emergence herbicidal action against LOLRI; conditions: dosage 320 g/ha
Outline: as §1

[5] = system: Matricaria inodora (MATIN); assay: Pre-emergence herbicidal action against MATIN
Outline: as §1

[6] = system: Pharbitis purpurea (PHBPU); assay: Pre-emergence herbicidal action against PHBPU
Outline: as §1

[7] = system: Polygonum convolvulus (POLCO); assay: Pre-emergence herbicidal action against POLCO
Outline: as §1

Setaria viridis (SETVI) [8] = assay: Pre-emergence herbicidal action against SETVI
Outline: as §1

[9] = system: Verconica persica (VERPE); assay: Pre-emergence herbicidal action against VERPE; conditions: dosage 320 g/ha
Outline: as §1

Viola tricolor (VIOTR) [10] = assay: Pre-emergence herbicidal action against VIOTR
Outline: as §1

[11] = system: Abutilon theophrasti (ABUTH); assay: Post-emergence herbicidal action against ABUTH; conditions: 320 g/ha, visual rating about 3 weeks after treatment vs untreated controls (100% = plants have died, 0% = like control plants)
Outline: (§2)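 Post-emergence greenhouse spray, one-leaf stage, 600 l/ha water plus 0.5% additive; WP or EC formulations; application rates 320 g/ha or lower. Visual % damage vs untreated controls at ~3 weeks.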

Avena fatua (AVEFA) [12] = assay: Post-emergence herbicidal action against AVEFA; conditions: visual rating about 3 weeks after treatment
Outline: as §2

[13] = system: Digitaria sanguinalis (DIGSA); assay: Post-emergence herbicidal action against DIGSA; conditions: visual rating about 3 weeks after treatment
Outline: as §2

[14] = system: Echinochloa crus-galli (ECHCG); assay: Post-emergence herbicidal action against ECHCG
Outline: as §2

[15] = system: Matricaria inodora (MATIN); assay: Post-emergence herbicidal action against MATIN
Outline: as §2

[16] = system: Pharbitis purpurea (PHBPU); assay: Post-emergence herbicidal action against PHBPU
Outline: as §2

Setaria viridis (SETVI) [17] = assay: Post-emergence herbicidal action against SETVI
Outline: as §2

Viola tricolor (VIOTR) [18] = assay: Post-emergence herbicidal action against VIOTR
Outline: as §2

Oryza sativa (ORYSA) = conditions: crop plant compatibility
Outline: (§3)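 One-leaf-stage crops (2–3 wk post-sowing, sandy loam, greenhouse) sprayed on green parts; 0.5% additive, 600 l/ha water. Rated by eye ~3 wk later, % vs untreated; suffixes a/b/c mark different dosages.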

Avena fatua (AVEFA) [19] = assay: Pre-emergence herbicidal action against AVEFA; conditions: 320 g/ha, visual scoring after about 3 weeks vs untreated controls
Outline: as §1

[20] = system: Alopecurus myosuroides (ALOMY); assay: Post-emergence herbicidal action against ALOMY; conditions: 80 g/ha, visual rating about 3 weeks after treatment vs untreated controls (100% = plants have died, 0% = like control plants)
Outline: as §2

[21] = system: Verconica persica (VERPE); assay: Post-emergence herbicidal action against VERPE; conditions: dosage 80 g/ha
Outline: as §2

Zea mays (ZEAMX) = system: Zea mays (ZEAMX)
Outline: as §3

[22] = 80 g/ha, visual scoring after about 3 weeks vs untreated controls
[23] = 80 g/ha, effect in comparison to untreated controls

SMILES | Pre-emergence action against ALOMY ([1]; 320 g/ha) [%] | Pre-emergence action against AMARE in % ([2]; 80 g/ha) [%] | Pre-emergence action against AMARE in % ([2]; 320 g/ha) [%] | Pre-emergence action against DIGSA in % [3, 22] [%] | Pre-emergence action against DIGSA in % ([3]; dosage 320 g/ha) [%] | Pre-emergence action against ECHCG in % ([4]; dosage 320 g/ha) [%] | Pre-emergence action against LOLRI in % (Lolium rigidum (LOLRI)) [%] | Pre-emergence action against MATIN in % ([5]; dosage 320 g/ha) [%] | Pre-emergence action against POLCO in % ([7]; dosage 320 g/ha) [%] | Pre-emergence action against SETVI in % (Setaria viridis (SETVI) [8]; dosage 80 g/ha) [%] | Pre-emergence action against SETVI in % (Setaria viridis (SETVI) [8]; dosage 320 g/ha) [%] | Pre-emergence action against VERPE in % [9] [%] | Pre-emergence action against VIOTR in % (Viola tricolor (VIOTR) [10]; 320 g/ha, Viola tricolor) [%] | Pre-emergence action against VIOTR in % (Viola tricolor (VIOTR) [10]; dosage 80 g/ha) [%] | Post-emergence action against DIGSA in % ([13]; 80 g/ha) [%] | Post-emergence action against ECHCG in % ([14]; dosage 80 g/ha) [%] | Post-emergence action against MATIN in % ([15]; dosage 80 g/ha) [%] | Post-emergence action against ORYSA in % (Oryza sativa (ORYSA); [23]) [%] | also measured
COC(=O)COc1nn(-c2nc(F)ccc2F)c(-c2cncc(F)c2)c1Cl [Example I-216] | 90 | 90 | 90 | 90 | 100 | 100 | 80 | 90 | 90 | 80 | 100 | 90 | 100 | 100 | 80 | 80 | 80 | 10 | Pre-emergence action against ECHCG in % ([4]; dosage 80 g/ha): 80%; Pre-emergence action against MATIN in % ([5]; dosage 80 g/ha): 90%; Pre-emergence action against PHBPU in % ([6]; dosage 80 g/ha): 90%; Pre-emergence action against PHBPU in % ([6]; dosage 320 g/ha): 90%; Pre-emergence action against POLCO in % ([7]; dosage 80 g/ha): 90%; Post-emergence action against ABUTH in % [11]: 80%; Post-emergence action against AVEFA in % (Avena fatua (AVEFA) [12]; 320 g/ha): 80%; Post-emergence action against DIGSA in % ([13]; 320 g/ha): 80%; Post-emergence action against ECHCG in % ([14]; dosage 320 g/ha): 80%; Post-emergence action against MATIN in % ([15]; dosage 320 g/ha): 80%; Post-emergence action against PHBPU in % ([16]; dosage 80 g/ha): 80%; Post-emergence action against PHBPU in % ([16]; dosage 320 g/ha): 80%; Post-emergence action against SETVI in % (Setaria viridis (SETVI) [17]; dosage 320 g/ha): 80%; Post-emergence action against VIOTR in % (Viola tricolor (VIOTR) [18]; 80 g/ha): 80%; Post-emergence action against VIOTR in % (Viola tricolor (VIOTR) [18]; 320 g/ha): 80%
COCCOC(=O)COc1nn(-c2ncccc2F)c(-c2ccc(F)nc2)c1Br [Example I-29] | 100 | 90 | 100 | 100 | 100 | 100 | 100 | 100 | 90 | 90 | 100 | 90 | 100 | 90 | 90 | 80 | 90 | 20 | Pre-emergence action against ALOMY ([1]; 80 g/ha): 90%; Pre-emergence action against AVEFA in % (Avena fatua (AVEFA) [19]): 90%; Post-emergence action against ALOMY in % [20]: 100%; Post-emergence action against AVEFA in % (Avena fatua (AVEFA) [12]; 80 g/ha): 80%; Post-emergence action against SETVI in % (Setaria viridis (SETVI) [17]; dosage 80 g/ha): 80%; Post-emergence action against VERPE in % [21]: 80%; Post-emergence action against ORYSA in % (Oryza sativa (ORYSA); 20 g/ha, effect vs untreated controls): 10%; Post-emergence action against ZEAMX in % (crop plant compatibility) (Zea mays (ZEAMX); 20 g/ha, ZEAMX, effect in comparison to untreated controls): 10%; Post-emergence action against ZEAMX in % (Zea mays (ZEAMX); crop plant compatibility, 80 g/ha, effect vs untreated controls): 20%
